Assays:
human recombinant HDAC6 = biological target: T1, human recombinant HDAC6 (Homo sapiens, UniProt Q9UBN7); experiment: Inhibition assay HDAC6 (fluorogenic substrate ZMAL); type: biochemical; conditions: for IC50: 15 min preincubation at 25 °C
T1 construct: purchased BPS Bioscience Inc. 50006
T1 sequence (Q9UBN7 1-1215): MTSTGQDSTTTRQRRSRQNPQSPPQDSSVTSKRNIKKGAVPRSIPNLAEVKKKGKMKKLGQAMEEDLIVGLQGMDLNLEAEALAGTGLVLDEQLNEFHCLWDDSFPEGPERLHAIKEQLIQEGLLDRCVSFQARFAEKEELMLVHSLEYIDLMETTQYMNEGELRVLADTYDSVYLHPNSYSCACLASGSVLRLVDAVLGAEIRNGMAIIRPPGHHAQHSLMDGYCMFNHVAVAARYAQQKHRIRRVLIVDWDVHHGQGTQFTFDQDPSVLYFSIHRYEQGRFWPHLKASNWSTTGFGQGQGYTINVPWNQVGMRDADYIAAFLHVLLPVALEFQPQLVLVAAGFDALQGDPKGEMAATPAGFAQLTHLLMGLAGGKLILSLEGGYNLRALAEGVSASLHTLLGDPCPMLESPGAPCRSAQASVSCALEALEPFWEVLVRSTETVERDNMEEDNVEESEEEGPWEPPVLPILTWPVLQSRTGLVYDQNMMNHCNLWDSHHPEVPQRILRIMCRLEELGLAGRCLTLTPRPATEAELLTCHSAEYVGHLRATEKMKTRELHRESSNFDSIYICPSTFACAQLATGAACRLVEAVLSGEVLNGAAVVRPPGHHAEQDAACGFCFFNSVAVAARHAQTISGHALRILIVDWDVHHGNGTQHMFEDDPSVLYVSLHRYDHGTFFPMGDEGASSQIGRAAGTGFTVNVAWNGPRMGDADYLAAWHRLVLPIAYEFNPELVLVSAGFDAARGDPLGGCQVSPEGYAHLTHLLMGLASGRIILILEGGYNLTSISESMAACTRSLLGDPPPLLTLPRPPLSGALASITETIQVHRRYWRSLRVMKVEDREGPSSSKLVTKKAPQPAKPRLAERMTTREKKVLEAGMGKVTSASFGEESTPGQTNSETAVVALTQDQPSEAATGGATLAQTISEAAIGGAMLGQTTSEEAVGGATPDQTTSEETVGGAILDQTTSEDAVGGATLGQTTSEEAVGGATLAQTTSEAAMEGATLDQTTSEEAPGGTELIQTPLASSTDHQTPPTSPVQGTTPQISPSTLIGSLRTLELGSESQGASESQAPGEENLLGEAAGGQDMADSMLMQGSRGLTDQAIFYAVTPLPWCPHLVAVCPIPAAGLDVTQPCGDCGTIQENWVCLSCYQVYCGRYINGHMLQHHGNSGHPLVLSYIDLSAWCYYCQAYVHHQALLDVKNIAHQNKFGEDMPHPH
Protocol: (§1) In vitro inhibitory activities against HDAC1−3 and HDAC6 were measured as previously published with minor modifications. […] Subsequently, 50 µL trypsin solution (0.4 mg/mL trypsin in buffer: 50 mM Tris−HCl, pH = 8.0, 100 mM NaCl) was added, followed by additional 30 min of incubation at 37 °C. […] All compounds were tested at least twice in duplicates.

human recombinant HDAC2 = biological target: T2, human recombinant HDAC2 (Homo sapiens, UniProt Q92769); experiment: Inhibition assay HDAC2 (fluorogenic substrate ZMAL); type: biochemical; conditions: 60 min preincubation at 25 °C
T2 construct: purchased BPS Bioscience Inc. 50052
Protocol: as §1

[1] = biological target: human recombinant HDAC3/NcoR2 (Homo sapiens, UniProt O15379); experiment: Inhibition assay HDAC3 (fluorogenic substrate ZMAL); type: biochemical; conditions: for IC50: 60 min preincubation at 25 °C; for specificity ratio (HDAC1/HDAC3): HDAC1 over HDAC3, from IC50 values
Protocol: as §1

human recombinant HDAC1 = biological target: T3, human recombinant HDAC1 (Homo sapiens, UniProt Q13547); experiment: Inhibition assay HDAC1 (fluorogenic substrate ZMAL); type: biochemical; conditions: 60 min preincubation at 25 °C
T3 construct: purchased BPS Bioscience Inc. 50051
Protocol: as §1

rat F98 glioma cells = experiment: MTS assay, cancer cell viability, F98; type: cell-based; conditions: 72 h, mean ± SD, n = 3, read-out: Cell Viability [%] (Vehicle = 100%) F98
Protocol: (§2) F98 cells (obtained from ATCC® Washington, DC, USA) and U251-MG cells (obtained from Drs A. Feldmann and N. Metwasi, Department of Radioimmunology, HZDR, Rossendorf, Germany) were cultivated in Dulbecco’s Modified Eagle Medium (DMEM, Gibco, Invitrogen, Dun Laoghaire, Ireland) supplemented with 10% heat inactivated fetal bovine serum (Gibco, Invitrogen, Dun Laoghaire, Ireland), and 100 U/mL penicillin and 100 µg/mL streptomycin (Gibco, Invitrogen, Dun Laoghaire, Ireland) in a humidified atmosphere in a CO2 incubator (37 °C, 5% CO2).
(§3) Proliferation of F98 and U251-MG cells was determined using a commercially available MTS assay (CellTiter 96® AQueous One Solution Cell Proliferation Assay, Promega GmbH, Walldorf, Germany). Briefly, the cells were seeded into 96-well plates at a density of 5 × 10^4 cells/well 24 h prior to the experiment at 37 °C in a humidified, 5% CO2 atmosphere. On the day of the experiment, the cell culture medium was replaced by fresh medium supplemented with either test compounds (working concentration: 50 µM; prepared by 1:200 dilution from a 10 mM stock solution in 100% DMSO with cell culture medium) or vehicle (0.5% DMSO in cell culture medium), and the cells were incubated for 72 h. Subsequently, 20 µL of the MTS solution was added per well and the plate was incubated in the CO2 incubator for another 2 h. Afterwards, the absorbance was measured at a wavelength of 490 nm using a microplate reader (Model 680 microplate reader, Bio-Rad Laboratories GmbH, Feldkirchen, Germany).

[2] = tested on: human U251-MG glioblastoma cells; experiment: MTS assay, cancer cell viability, U251-MG; type: cell-based; conditions: U-251, 72 h, mean ± SD, n = 3, read-out: Cell Viability [%] (Vehicle = 100%) U251-MG
Protocol: as §2, §3

[3] = Solubility observed in cell culture medium; type: physicochemical; conditions: 50 µM in cell culture medium supplemented with 0.5% DMSO

Chain of human recombinant HDAC3/NcoR2 (O15379 whole entry): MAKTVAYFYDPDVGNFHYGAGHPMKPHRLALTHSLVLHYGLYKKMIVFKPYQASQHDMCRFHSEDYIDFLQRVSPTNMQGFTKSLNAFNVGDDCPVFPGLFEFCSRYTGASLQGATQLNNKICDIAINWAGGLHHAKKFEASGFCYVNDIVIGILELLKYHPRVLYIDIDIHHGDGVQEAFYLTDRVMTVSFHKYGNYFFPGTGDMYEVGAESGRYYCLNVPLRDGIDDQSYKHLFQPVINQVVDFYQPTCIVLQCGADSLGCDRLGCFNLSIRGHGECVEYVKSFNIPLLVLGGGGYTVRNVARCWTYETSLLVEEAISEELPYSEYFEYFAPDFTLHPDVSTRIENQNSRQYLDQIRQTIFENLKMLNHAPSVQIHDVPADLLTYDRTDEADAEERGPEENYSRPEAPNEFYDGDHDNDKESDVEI
Chain of human recombinant HDAC3/NcoR2 (Q9Y618 395-489 partner limits assumed): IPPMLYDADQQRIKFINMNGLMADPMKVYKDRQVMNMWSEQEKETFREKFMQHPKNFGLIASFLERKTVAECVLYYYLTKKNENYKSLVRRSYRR
T3 sequence (Q13547 whole entry): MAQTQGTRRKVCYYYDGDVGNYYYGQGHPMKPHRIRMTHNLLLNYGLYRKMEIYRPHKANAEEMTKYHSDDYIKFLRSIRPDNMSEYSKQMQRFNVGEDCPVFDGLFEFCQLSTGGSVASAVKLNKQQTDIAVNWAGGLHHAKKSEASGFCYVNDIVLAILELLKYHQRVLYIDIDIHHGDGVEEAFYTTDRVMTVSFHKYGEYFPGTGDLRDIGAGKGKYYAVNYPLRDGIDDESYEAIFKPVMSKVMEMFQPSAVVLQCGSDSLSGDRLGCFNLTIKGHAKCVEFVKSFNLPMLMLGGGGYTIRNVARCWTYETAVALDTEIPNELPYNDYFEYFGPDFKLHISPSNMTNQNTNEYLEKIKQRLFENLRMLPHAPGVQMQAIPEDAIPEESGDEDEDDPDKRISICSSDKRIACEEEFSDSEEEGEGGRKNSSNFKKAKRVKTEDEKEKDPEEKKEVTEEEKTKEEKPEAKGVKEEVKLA
T2 sequence (Q92769 whole entry): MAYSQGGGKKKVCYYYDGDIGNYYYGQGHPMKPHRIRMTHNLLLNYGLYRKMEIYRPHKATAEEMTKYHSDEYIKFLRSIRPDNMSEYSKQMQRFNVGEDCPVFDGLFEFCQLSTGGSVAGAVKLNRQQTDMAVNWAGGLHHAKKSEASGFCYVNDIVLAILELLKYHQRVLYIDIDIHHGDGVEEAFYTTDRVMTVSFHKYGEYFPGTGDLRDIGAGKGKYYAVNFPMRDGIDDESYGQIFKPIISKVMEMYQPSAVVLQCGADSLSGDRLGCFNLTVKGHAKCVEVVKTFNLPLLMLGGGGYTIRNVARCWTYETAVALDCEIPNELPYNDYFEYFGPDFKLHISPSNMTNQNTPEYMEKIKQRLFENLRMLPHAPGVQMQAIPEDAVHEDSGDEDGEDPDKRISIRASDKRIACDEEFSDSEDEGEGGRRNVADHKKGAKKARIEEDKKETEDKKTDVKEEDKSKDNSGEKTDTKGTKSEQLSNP

IC50 (human recombinant HDAC6) [µM] | IC50 (human recombinant HDAC2) [nM] | IC50 [1] [nM] | specificity ratio (HDAC1/HDAC3) [1] | IC50 (human recombinant HDAC1) [nM] | solubility in cell culture medium [3] | specificity ratio HDAC1 over HDAC6 (human recombinant HDAC6; from IC50 values) | Compound | viability at 50 µM (rat F98 glioma cells) [%] | viability at 50 µM [2] [%]
> 10 | 56.6 ± 0.6 | > 1110 | > 74 | 14.9 ± 0.4 | – | – | CC(F)C(=O)Nc1ccc(C(=O)Nc2cc(-c3ccc(F)cc3)ccc2N)cc1 (stereo not drawn) [BA6, N-(4-amino-4′-fluoro-[1,1′-biphenyl]-3-yl)-4-(2-fluoropropanamido)benzamide] | – | –
> 10 | 56.3 ± 0.2 | 2400 ± 250 | – | 19.8 ± 0.4 | – | – | CC(F)C(=O)NCc1ccc(C(=O)Nc2cc(-c3ccoc3)ccc2N)cc1 (stereo not drawn) [BA9, N-[2-amino-5-(furan-3-yl)phenyl]-4-[(2-fluoropropanamido)methyl]benzamide] | – | –
> 10 | 38.1 ± 4.5 | > 3330 | – | 11.2 ± 2.4 | – | – | CC(F)C(=O)Nc1ccc(C(=O)Nc2cc(-c3ccsc3)ccc2N)cc1 (stereo not drawn) [BA4, N-[2-amino-5-(thiophen-3-yl)phenyl]-4-(2-fluoropropanamido)benzamide] | – | –
– | – | – | – | – | – | – | CC(=O)Nc1ccc(C(=O)Nc2ccccc2N)cc1 [tacedinaline] | 27.1 ± 3 | 28.5 ± 3
– | – | – | – | – | – | – | O=C(CCCCCCC(=O)Nc1ccccc1)NO [vorinostat] | 24.4 ± 7.9 | 36.9 ± 7.6
– | – | – | – | – | – | – | Nc1ccccc1NC(=O)c1ccc(CNC(=O)OCc2cccnc2)cc1 [entinostat] | 27.5 ± 4.4 | 55 ± 11.2
> 10 | 82.1 ± 0.1 | 4200 ± 80 | – | 24.2 ± 2.9 | – | – | CC(F)C(=O)Nc1ccc(C(=O)Nc2cc(-c3ccco3)ccc2N)cc1 (stereo not drawn) [BA8, N-[2-amino-5-(furan-2-yl)phenyl]-4-(2-fluoropropanamido)benzamide] | – | –
> 10 | 32.2 ± 5.5 | 1300 ± 70 | – | 10.2 ± 0.4 | – | – | CC(F)C(=O)NCc1ccc(C(=O)Nc2cc(-c3ccc(F)cc3)ccc2N)cc1 (stereo not drawn) [BA5, N-(4-amino-4′-fluoro-[1,1′-biphenyl]-3-yl)-4-[(2-fluoropropanamido)methyl]benzamide] | – | –
> 10 | 69.1 ± 1.2 | 3800 ± 180 | – | 20.4 ± 0.3 | – | – | CC(F)C(=O)NCc1ccc(C(=O)Nc2cc(-c3ccco3)ccc2N)cc1 (stereo not drawn) [BA7, N-[2-amino-5-(furan-2-yl)phenyl]-4-[(2-fluoropropanamido)methyl]benzamide] | – | –
> 10 | 33.5 ± 1.5 | > 1110 | – | 8.3 ± 1.4 | – | – | CC(F)C(=O)Nc1ccc(C(=O)Nc2cc(-c3cccs3)ccc2N)cc1 (stereo not drawn) [BA2, N-[2-amino-5-(thiophen-2-yl)phenyl]-4-(2-fluoropropanamido)benzamide] | – | –
> 10 | 47.7 ± 2.9 | 3300 ± 480 | – | 17 ± 1.2 | – | – | CC(F)C(=O)Nc1ccc(C(=O)Nc2cc(-c3ccoc3)ccc2N)cc1 (stereo not drawn) [BA10, N-[2-amino-5-(furan-3-yl)phenyl]-4-(2-fluoropropanamido)benzamide] | – | –
> 10 | 39.9 ± 3.2 | > 1110 | > 230 | 4.8 ± 0.6 | slight precipitation | > 2080 | CC(F)C(=O)NCc1ccc(C(=O)Nc2cc(-c3ccsc3)ccc2N)cc1 (stereo not drawn) [BA3, N-[2-amino-5-(thiophen-3-yl)phenyl]-4-[(2-fluoropropanamido)methyl]benzamide] | – | –
> 10 | 64.3 ± 4.5 | 2300 ± 190 | 479 | 4.8 ± 0.4 | – | – | CC(F)C(=O)NCc1ccc(C(=O)Nc2cc(-c3cccs3)ccc2N)cc1 (stereo not drawn) [BA1, N-[2-amino-5-(thiophen-2-yl)phenyl]-4-[(2-fluoropropanamido)methyl]benzamide] | – | –

Reference: PMC8950173 (Pharmaceuticals, 2022)
